In general, half-life refers to the time needed for the level to fall by half in the phase considered. Higher therefore signals slow decline.

Results on two compounds are retold here after US20210363110A1, “4-METHYLDIHYDROPYRIMIDINONE COMPOUNDS AND PHARMACEUTICAL USE THEREOF” (Japan Tobacco Inc., priority 2018, published 2021).

Data set [1] is described as follows: Metabolic stability in hepatocytes, dog. It is filed as in vitro ADME. The settings on record: residual ratio of unreacted substance, 1×10^6 cells/mL. Here is the method:
A test solution was prepared by diluting 10 mM DMSO solution of a test substance with acetonitrile by 20 times.
Human and animal cryopreserved hepatocyte (BIOIVT; Human (IVT-X008000), Rat (IVT-M00005), Monkey (IVT-M00305), Dog (IVT-M00205)) were adjusted with William's Medium E (SIGMA; W1878) to 1×10^6 cells/mL of a cell suspension, which was then added to a 96-well plate. Then, 1% of the solution of a test substance prepared was added to the reaction system, and the metabolic reaction was initiated. At a designated time, 0.1% formic acid-acetonitrile was added thereto, and the reaction was terminated.
(§1) The sample after termination of the reaction was separated by centrifugation (1400 g, 20 min.), and then the supernatant was measured by LC/MS (UPLC-SQD (waters)) to calculate a residual ratio of unreacted substances.

The subject of data set [2] is IL-17 production in plasmas. In words: IL-17 production in plasmas of cytokine-stimulated normal mice. The settings on record: 0.1 mg/mL suspension, 0.2 mL/head orally, single, 28 hours before IL-1 beta/IL-23 i.v.; blood 2 hours after cytokine. The data set is classed as in vivo, C57BL/6J mice. Here is the method:
Effects of test substances on IL-17 production in plasmas were assessed in normal mice. The assessment was performed according to Non Patent Literature 32. Nine-week old female C57BL/6J mice (Japan Charles River K. K.) were used as a test animal.
A mixed solution prepared by mixing Recombinant Mouse IL-1 beta/IL-1F2 Protein (R&D systems, INC.) and Recombinant Mouse IL-23 Protein (R&D systems, INC.) at a final concentration of 1.5 μg/mL was administered intravenously to all groups at the tail vein at a volume of 200 μL/head. Blood was collected 2 hours after the administration of cytokine solution.
Administration was performed 28 hours before the administration of cytokine solution. 0.5% (w/v) methyl cellulose (MC) and 0.1 mg/mL of a test substance suspended in 0.5% (w/v) MC were administered orally at a single volume of 0.2 mL/head to Vehicle group and a compound-administered group, respectively.
(§2) Blood was separated by centrifugation, and then the IL-17 concentration in plasma was measured with Quantikine (Registered trade mark) Mouse IL-17 ELISA Kit (R&D systems, Inc.).
The IL-17 concentration of Vehicle group was deemed to be 100%, and the IL-17 concentration percentage of the compound-administered group to the Vehicle group was calculated from the following equation.
%=a/b×100 a: IL-17 concentration of the compound-administered group b: IL-17 concentration of the Vehicle group

A short description of data set [3]: Metabolic stability in liver microsomes, mouse. The data set is classed as in vitro ADME. The settings on record: residual ratio of unreacted substance, 0.2 mg/mL microsomes, NADPH generating system. Here is the method:
(§3) A test solution was prepared by diluting 10 mM DMSO solution of a test substance with acetonitrile by 100 times.
(§4) Human and animal liver microsomes (SEKISUI XENOTECH; Human (H2610), Rat (R1000), Mouse (M1000), Monkey (P2000), Dog (D1000)) were adjusted with potassium phosphate buffer (pH 7.4) to 0.2 mg/mL in the reaction system. Then, 1% of the solution of a test substance prepared was added to the reaction system. Thereto was added an NADPH generating system (prepared according to the method of Non Patent Literature 28), and the metabolic reaction was initiated. At a designated time, 0.1% formic acid-acetonitrile/water (3:1) was added thereto, and the reaction was terminated.
as §1

The subject of data set [4] is IL-17 production in plasmas. The data set can be described thus: IL-17 production in plasmas of antigen-sensitized mice. It is filed as in vivo, C57BL/6J mice. The settings on record: for IL-17 concentration in plasma, % of control, 0.3 mg/kg: 0.3 mg/kg orally once daily for 7 days; for IL-17 concentration in plasma, % of control, 0.3 mg/kg / IL-17 concentration in plasma, % of control, 1 mg/kg: MOG/CFA/PTX-sensitized mice, blood at day 8, Normal 0%, Vehicle 100%; for IL-17 concentration in plasma, % of control, 1 mg/kg: 1 mg/kg orally once daily for 7 days; for ED50: Mus musculus, 168 h, oral once daily for 7 days, antigen-sensitized mice, calculated from the 0.3 and 1 mg/kg groups, read-out: ED50 (dose where the IL-17 concentration was decreased by 50%). The procedure:
Effects of test substances on IL-17 production in plasmas were assessed in antigen-sensitized mice. Antigen sensitization was performed according to Non Patent Literature 31. Nine-week old female C57BL/6J mice (Japan Charles River K. K.) were used as a test animal.
An emulsion prepared by mixing 3 mg/mL of myelin oligodendrocyte glycoprotein (MOG; ANASPEC) and 4 mg/mL of complete Freund's adjuvant (CFA; Chondrex) in an equal ratio was administered subcutaneously to a mouse at the bilateral abdomens at a volume of 50 μL/site (day 1). 1 μg/mL of pertussis toxin (PTX; List Biological Laboratories) was administered intraperitoneally at a volume of 200 μL/head (day 1 and 3). Blood was collected at day 8.
Administration was performed once daily for 7 days after the administration of emulsion (day 1 to 7). 0.5% (w/v) methyl cellulose (MC) was administered orally at a volume of 10 mL/kg to Normal group (normal mice) and Vehicle group (antigen-sensitized mice), and 0.03 mg/mL or 0.1 mg/mL of a test substance suspended in 0.5% (w/v) MC was administered orally at a volume of 10 mL/kg to a compound-administered group.
as §2
The IL-17 concentration of Normal group was deemed to be 0% and that of Vehicle group was deemed to be 100%. The IL-17 concentration percentage (% of control) of the compound-administered group was calculated from the following equation.
% of control=(a−b)/(c−b)×100
a: IL-17 concentration of the compound-administered group b: IL-17 concentration of the Normal group c: IL-17 concentration of the Vehicle group
Then, a dose of compound where the IL-17 concentration was decreased by 50% (ED50) was calculated from the following equation.
ED50=10^(log(A/B)×(50−D)/(C−D)+log(B); provided that ED50=B in the case D=50, and ED50>B in the case D>50 A: dosed amount of the lower dose group (i.e. 0.3 mg/kg) B: dosed amount of the higher dose group (i.e. 1 mg/kg) C: % of control at the lower dose group D: % of control at the higher dose group

Data set [5] is described as follows: Rat pharmacokinetic (PK) assay and measurement of plasma concentrations. It is filed as in vivo. Conditions: male rat, 0.3 mg/kg, DMSO solution, T1/2=0.693/Kel. Here is the method:
A DMSO solution (0.1 mL/kg) of test substance (0.3 mg/kg) was administered to a male rat (7-week old), and blood was collected at designated times (5, 10, 15, 30 min., 1, 2, 4, 8, 25 hr). Samples after the blood collection were separated by centrifugation (11000 g, 5 min.) to obtain plasmas.
A double volume of a mixed solution of acetonitrile/water (9:1) was added to a plasma sample obtained in (1) in order that proteins were extracted from the mixture. The sample after extraction was separated by centrifugation (11000 g, 5 min.), and the supernatant was measured by LC/MSMS (Nexera (Shimadzu)-QTrap5500 (AB SCIEX)). A calibration curve was measured simultaneously, and plasma concentrations were calculated.
The elimination rate constant (Kel) was calculated from two points of the elimination phase in the plasma concentration profile, and the half-life (T1/2) was calculated from the elimination rate constant.
Kel=−(ln Conc1−ln Conc2)/(t1−t2)

The nature of data set [6]: Metabolic stability in liver microsomes, dog. The data set is classed as in vitro ADME. Conditions: residual ratio of unreacted substance, 0.2 mg/mL microsomes, NADPH generating system. The procedure:
as §3, §4, §1

Where only a bound is given, the exact number is not on record here.

For `CC[C@H](C)C1=CN(C23CC(C(=O)O)(C2)C3)C(=O)N[C@@]1(C)c1ccc([C@@H]2C[C@H]2C(C)(C)C)c(Cl)c1` [Compound (2), 3-{(S)-5-((S)-sec-Butyl)-4-[4-((1R,2R)-2-tert-butyl-cyclopropyl)-3-chloro-phenyl]-4-methyl-2-oxo-3,4-dihydro-2H-pyrimidin-1-yl}bicyclo[1.1.1]pentane-1-carboxylic acid], the “Metabolic stability in hepatocytes at 240 min., Dog” value in data set [1] was determined as 78%. Moreover, the “IL-17 concentration (%) relative to Vehicle group” value in data set [2] turned out to be 67%. In data set [3], the “Metabolic stability in liver microsomes at 60 min., Mouse” value stood at 98%. Also, in data set [4], the “IL-17 concentration in plasma, % of control, 0.3 mg/kg” value is 85 (=C) %; the “IL-17 concentration in plasma, % of control, 1 mg/kg” value was 54 (=D) %; the ED50 is greater than 1 mg/kg. Moreover, the half-life in data set [5] was 13.2 h. Further, the “Metabolic stability in liver microsomes at 60 min., Dog” value in data set [6] was 95%.
`CC(C)C1=CN(C23CC(C(=O)O)(C2)C3)C(=O)N[C@@]1(C)c1ccc([C@@H]2C[C@H]2C(C)(C)C)c(Cl)c1` [Compound (1), 3-{(S)-4-[4-((1R,2R)-2-tert-Butyl-cyclopropyl)-3-chloro-phenyl]-5-isopropyl-4-methyl-2-oxo-3,4-dihydro-2H-pyrimidin-1-yl}bicyclo[1.1.1]pentane-1-carboxylic acid]: in data set [1], the “Metabolic stability in hepatocytes at 240 min., Dog” value stood at 88%. Moreover, the “IL-17 concentration (%) relative to Vehicle group” value in data set [2] is reported as 52%. Also, the “Metabolic stability in liver microsomes at 60 min., Mouse” value in data set [3] is 95%. Further, in data set [4], the “IL-17 concentration in plasma, % of control, 0.3 mg/kg” value is reported as 66 (=C) %; the “IL-17 concentration in plasma, % of control, 1 mg/kg” value was 24 (=D) %; the ED50 was 0.5 mg/kg. In data set [5], this compound had a half-life of 10.5 h. Further, in data set [6], the “Metabolic stability in liver microsomes at 60 min., Dog” value is on record as 98%.
